Test system: Mycobacterium tuberculosis H37Rv growth inhibition, no glycerol
Assay: Confirmatory growth inhibition assay, Mycobacterium tuberculosis H37Rv, absence of glycerol (AID 449764);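 also: growth read after 7 days of incubation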
Details: for IC90: measured here: IC90 growth inhibition

Row | SMILES | IC50 [µM] | IC90 [µM]
1 | CCN(CCNCC(O)COc1ccccc1C(C)C)c1cccc(C)c1 (stereo not given) | 22.8 | 26
2 | CCOC(=O)N1CCN(C(=O)CSc2nnc(-c3ccc(Cl)s3)o2)CC1 | 25.2 | 29.9
3 | COCC(=O)O[C@]1(CCN(C)CCCc2nc3ccccc3[nH]2)CCc2cc(F)ccc2[C@@H]1C(C)C | 45.4 | 53.2
4 | COc1ccc(NC(=O)CN(C)CC(=O)Nc2sc3c(c2C(N)=O)CCC3)cc1 | 82.4 | > 100
5 | c1ccc(-n2cnc3cc(NCc4cccs4)ccc32)cc1 | 89 | > 100
6 | CC1CCC(NC(=O)c2cc3c(s2)CCCC3)CC1 (stereo not given) | 67.7 | > 100
7 | O=C(C=C=Nc1ccccc1)C(=O)N=C=Cc1ccccc1 | 12.4 | 20.5
8 | COCCCN=C1NN=C(c2cc(C)n(Cc3ccco3)c2C)CS1 | 70.7 | 92.2
9 | N#Cc1nc(-c2ccc(OCc3ccccc3)cc2)oc1NCCCn1ccnc1 | 37.5 | 43
10 | O=C(COC(=O)c1cccs1)c1ccccc1 | 45.8 | > 100
11 | COc1cccc(/C=N/Nc2nc(Nc3ccccc3)nc(-n3nc(C)cc3C)n2)c1O | < 0.2 | 0.25
12 | COc1ccc(-c2nnn(CC(=O)OC3CCCCC3)n2)cc1OC | 20.6 | > 100
13 | Cc1nn(-c2ccccc2)c(Cl)c1/C=C/C(=O)c1ccccc1 | 74.9 | 97.2
14 | Cc1cc(C(=O)COC(=O)C2=COCCO2)c(C)n1-c1cccc(F)c1 | 9.64 | > 100
15 | O=C(CCl)N1CCCC1c1ccc2c(c1)OCCO2 (stereo not given) | 8.76 | 14.1
16 | CCCCCOc1ccc(NC2=CC(=O)CCC2)cc1 | 77.8 | 99
17 | CCOC(=O)c1ccc(NC(=S)NCCc2ccc(F)cc2)cc1 | 75.3 | > 100
18 | CCc1ccc(NCc2ccc(OC)c(Cn3ccnc3)c2)cc1 | 21.5 | 23.7
19 | Oc1ccc(Nc2nc(-c3ccc4ccccc4c3)cs2)cc1 | 82.4 | > 100
20 | Cc1ccc(C(=O)O/N=C\c2ccc(N3CCCCC3)c([N+](=O)[O-])c2)cc1 | 53.4 | > 100
21 | CN1CCN(c2cc(-c3ccccc3)nc3cc(-c4ccc(F)cc4)nn23)CC1 | 16.4 | 42.2
22 | Cc1cc(O)c2c(c1)C(=O)c1cc(O)cc(O)c1C2=O | 89 | > 100
23 | COc1ccc(C(=O)C[n+]2ccc3c(c2)nc(-c2cc(OC)c(OC)cc2OC)n3C)cc1 | 11.6 | 13.1

Row | SMILES | IC50 [µM] | IC90 [µM]
24 | COc1ccc(NC(=O)NC(C)C2CC3CCC2C3)cc1 (stereo not given) | 25.3 | 43.1
25 | CN(C(=O)c1cccc(Nc2ccc(-c3ccc4c(c3)OCCO4)nn2)c1)C1CCCCC1 | 69.2 | > 100
26 | Cc1sc2ncnc(N3CCC(C(=O)NCC(=O)Nc4ccc(F)c(F)c4)CC3)c2c1C | 46.7 | 53.1
27 | CC(OC(=O)c1cnc2ccccc2n1)c1ccccc1Cl (stereo not given) | 22 | 34
28 | O=C1/C(=C\c2ccncc2)CCc2ccccc21 | 45.9 | 49.7
29 | CC(=O)c1ccc(Sc2nnnn2-c2ccccc2)c([N+](=O)[O-])c1 | 19.8 | 31.8
30 | COc1ccccc1OC(=O)c1ccc(S(=O)(=O)N(C)C)cc1 | 16.4 | 35.8
31 | CCOC(=O)CSc1nc(C)c(C(=O)OCC)s1 | 9.22 | 16.2
32 | CC(C)(C)Nc1nc(NC(C)(C)C)nc(-n2ccnc2)n1 | 59.9 | 98.5
33 | Cc1cc(Cl)ccc1NNC(=O)CCc1ccccc1 | 84.1 | > 100
34 | CC1CC(C)CN(C(=O)C2CCC(CNc3c(N4CCCCC4)c(=O)c3=O)CC2)C1 (stereo not given) | 45.8 | > 100
35 | CCN(CC)S(=O)(=O)c1ccc(/C=C/C(=O)OCC#N)cc1 | 23.3 | 47.2
36 | Cc1ccc(C)c(N2CCN(C(=S)Nc3ccc4nc(N5CCN(C)CC5)cc(C)c4c3)CC2)c1 | 35.7 | 55.9
37 | CCOC(=O)N1CCC(N2Cc3cccc(C(=O)Nc4ccc(N(CC)CC)cc4C)c3C2=O)CC1 | 35.3 | > 100
38 | CN(C)c1ccc(-c2cc(O)c3ncccc3c2)cc1 | 2.63 | 3.53
39 | CCCNC(=S)Nc1ccc(Nc2ccccc2)cc1 | 25 | 44.5
40 | CC1CCN(C(=O)C2CCN(c3nnc(-n4cccc4)s3)CC2)CC1 | 3.51 | 6.13
41 | CCOC(=O)N1CCN(Cc2cc(Cl)c3cccnc3c2O)CC1 | 21.8 | 24.7
42 | O=C(NC1CCN(Cc2ccccc2)CC1)c1cccc(S(=O)(=O)Nc2ccc(SC(F)F)cc2)c1 | 19.3 | 27.9
43 | O=C(NCCC1=CCCCC1)c1c(O)nc2sccn2c1=O | 66 | > 100
44 | CCOC(=O)C(C)Sc1ncnc2c1nnn2-c1ccc(F)cc1 (stereo not given) | 2.61 | 9.68
45 | COc1ccc(-c2nnc3sc(C4CCCCC4)nn23)cc1OC | 45.6 | 51.6

Source: PubChem BioAssay AID449764 (Southern Research Specialized Biocontainment Screening …, 2010)
